In a melting point compilation (Tetko et al.; mined from patent text by program, amines drawn as free bases though some values may be those of a salt):

| SMILES | melting point |
| --- | --- |
| CON1C(C)(C)CC(OC(=O)NNC(=O)OC2CC(C)(C)N(OC)C(C)(C)C2)CC1(C)C | 147 to 149 °C |
| CN(C)c1cccc(OCC(=O)c2cccc(Cl)c2)c1 | 101 to 103 °C |
| Cc1nc(-n2ccc(OCc3ccc(C(F)(F)F)cc3)cc2=O)sc1C(=O)NCc1ccccc1 | 278 to 280 °C |
| NS(=O)(=O)Cc1ccc2[nH]cc(CCN3C(=O)c4ccccc4C3=O)c2c1 | 186 to 188 °C |
| CSc1nnc(C2(C)CC2)c(=O)n1N | 115 to 116 °C |
| COc1cc(Cc2cnc(N)nc2N)c2ccccc2c1OC | 228 to 230 °C |
| O=C(COc1cc(-c2ccccc2F)nc2ccccc12)N1CCOCC1 | 145 °C |
| CCCCC(=O)N1CCN(C(=O)Nc2ccccc2CCc2cc(C(C)(C)C)c(O)c(C(C)(C)C)c2)CC1 | 126 to 128 °C |
| Cc1ccc(C(=O)NCCO)c(Nc2ccc3cn[nH]c3c2)n1 | 217 to 220 °C |
| O=C(CCCN1CCC(Cc2ccccc2)CC1)c1ccc2c(c1)Cc1cc(C(=O)CCCN3CCC(Cc4ccccc4)CC3)ccc1-2 | 135 to 137 °C |
| CC(C)(C)c1cc(NC(=O)Nc2ccc(OCCN3CCOCC3)c3ccccc23)n(-c2ccccc2)n1 | 142 to 143 °C |
| CN(C)CCNC(=O)N1CCN(c2ccc(Cl)cc2)CC1 | 125 to 128 °C |
| C(=Cc1ccc2nc(-c3ccccc3)oc2c1)c1ccc(-c2nc3ccccc3o2)cc1 | 233 to 237 °C |
| COc1cc(OC)c2c(=O)[nH]c(-c3ccc(OCCNC(C)C)c(-c4cccc(S(C)(=O)=O)c4)n3)nc2c1 | 222 to 223 °C |
| CC(C)(C)OC(=O)NC12CCC1CN(c1c(F)cc3c(=O)c(C(=O)O)cn(C4CC4)c3c1Cl)C2 (stereo not given) | 200 to 202 °C |
| COC(=O)c1ccc(CCc2nc(NC(C)=O)sc2Cc2ccc(S(C)(=O)=O)cc2)cc1 | 209 to 210 °C |
| C=Cc1cc(NC(=O)N2CCN(c3cc(F)cc(F)c3)CC2)c(OC)nc1C | 160 to 161 °C |
| C#Cc1cn(C2CC(O)C(CO)O2)c(=O)n(C(=O)c2ccccc2)c1=O (stereo not given) | 156 to 157 °C |
| CC(=O)c1[nH]c(-c2ccc(O)cc2)nc1C | 300 °C |
| CCC(C)c1ccc2c(c1)C1(O)C(=O)c3ccccc3C1(O)O2 (stereo not given) | 134 to 136 °C |
| C/C(=C\c1ccc(CO)cc1)c1ccc2c(c1)C(C)(C)CCC2(C)C | 123 to 124 °C |
| NC(=O)c1cnn(-c2ncc(C(F)(F)F)cc2Cl)c1N | 196 °C |
| CC(=O)NCCCCC(NC(C)=O)C(C)=O (stereo not given) | 111 to 113 °C |
| N#Cc1ccc(-c2ccc(Cl)cc2)[nH]c1=O | 330 to 339 °C |
| CS(=O)(=O)c1ccc(-n2nccc2-c2ccc(Br)cc2)cc1F | 155 to 156 °C |

| SMILES | melting point |
| --- | --- |
| CN(C)CCOc1cc(O)cc(/C=C/c2ccc(O)cc2)c1 | 92 to 94 °C |
| CC(=O)N1CCC(CCC(=O)c2cc3c4c(c2)CC(=O)N4CCC3)CC1 | 119 to 120 °C |
| CC#Cc1cnc(OC)nc1 | 88 to 89.5 °C |
| O=c1[nH]c(NCCCNc2ncccc2Cl)ncc1Cc1ccc(Cl)cc1 | 180 to 181 °C |
| CNS(=O)(=O)Oc1ccc2c(c1)C(C)(C)C(N1CCOCC1)O2 (stereo not given) | 129 to 131 °C |
| C=CCOc1cc([N+](=O)[O-])ccc1[N+](=O)[O-] | 66.5 to 68 °C |
| O=C(O)CCc1oc(-n2cnc3ccccc32)nc1-c1ccc(Cl)cc1 | 217 to 218 °C |
| COc1cc(C)c2c(c1OCC(=O)O)CC(C)(c1ccccc1)C2 (stereo not given) | 151 to 152 °C |
| c1ccc(C2(Cc3ccncc3)c3ccccc3-c3sccc32)cc1 (stereo not given) | 88 to 92 °C |
| CCCC1CCC(c2cc(F)c(C(F)(F)Oc3ccc(-c4cc(F)c(C(F)(F)F)c(F)c4)c(F)c3)c(F)c2)OC1 (stereo not given) | 95 °C |
| O=C(c1ccccc1)c1c(O)cc(-c2ccccc2)oc1=O | 171 to 173 °C |
| CN1c2ccc(Cl)cc2NC(=S)c2cscc21 | 238 to 240 °C |
| CNC(=O)c1cccc(NC(=O)COc2cccc(Cl)c2Cl)c1 | 192 to 193 °C |
| CN(C)C=NS(=O)(=O)c1cc(CCNC(=O)C(F)(F)F)ccc1OCC1CCCO1 (stereo not given) | 138 to 140 °C |
| O=C(Oc1ccc(Br)cc1)c1ccccc1 | 98 to 100 °C |
| CCOC(=O)c1cc(OC)c(OC)c(OC)c1-c1c(C(=O)OCC)cc(OC)c2c1OCO2 | 95 to 96.5 °C |
| Cc1ccc(N(c2ccc(C)cc2)c2c(F)cc(F)c(F)c2F)cc1 | 95 °C |
| CSC(c1ccc(Cl)cc1)C(C(O)C(C)(C)C)n1cncn1 (stereo not given) | 58 to 60 °C |
| COC(=O)C(O)c1ccc(Cl)cc1 (stereo not given) | 55 °C |
| CCOC(=O)N1CCc2nc3ccccc3c(CO)c2CC1 | 158 °C |
| NC(=O)CCC(=O)c1ccccc1 | 122 to 124 °C |
| CN(C)C=Nc1c(C#N)c(=O)n(C)c(=O)n1C | 174 to 175 °C |
| Oc1cccc(-c2noc3ccsc23)c1 | 114 to 116 °C |
| CCOc1ccc2c(c1)CCc1c(C#N)cccc1S2 | 124 to 126 °C |
| O=C(Nc1ccc(Oc2ccc(Cl)cc2)nc1)N1CCc2ccccc2CC1 | 135 to 137 °C |

| SMILES | melting point |
| --- | --- |
| O=C(NC(=O)N1CCC(COc2ccccc2)CC1)c1ccc(O)cc1 | 207 °C |
| O=S1(=O)N=CN(C2CC2)c2ccc(F)c(Cl)c21 | 260 to 263 °C |
| O=C(O)CCC1CC(c2ccccc2)CCC1O (stereo not given) | 154 to 155 °C |
| CC(C)(C)OC(=O)N(Cc1ccc(C2CCCCC2)cc1)c1nc(N2CCOCC2)c2ncn(CC(=O)O)c2n1 | 166 to 167 °C |
| COc1ccc2c(c1)C(=O)N(c1ccc(C(C)CO)cc1)C2 (stereo not given) | 135 to 138 °C |
| Nc1ccc2nc3c(c(N)c2c1)C(=O)CCC3 | 310 °C |
| CC(=O)OC1CCc2cc3ccccc3n2C1 (stereo not given) | 90 to 95 °C |
| COC(=O)c1ccc2c(c1)ncn2Cc1ccccc1 | 156 to 162 °C |
| O=C(c1ccc(Cl)cc1)N1CCc2cc(S(=O)(=O)N3CC(c4ccccc4)NC3=O)ccc21 (stereo not given) | 235 °C |
| CC(C)(C)OC(=O)N1CCN(C(=O)OC(C)(C)C)C(C(O)(Cc2ccccc2)Cc2ccccc2)C1 (stereo not given) | 150 °C |
| O=C(O)c1csnc1-c1cc(C(F)(F)F)cc(C(F)(F)F)c1 | 151 to 154 °C |
| CC1(C)OC[C@H](c2cnc(NC(=O)C(C)(C)C)cn2)O1 | 142 to 143 °C |
| CCCc1c(OCCCCCCCCOc2ccc(C(=O)c3cccc(C(=O)O)c3)cc2CCC(=O)O)ccc2c1OCCC2=O | 112 to 117 °C |
| CC1(C)CC(=O)C=C(c2ccc(OCC(=O)O)c(Cl)c2Cl)C1 | 178 to 180 °C |
| O=C1Cc2cccc(S(=O)c3ccc(Cl)cc3)c2N1 (stereo not given) | 191 to 194 °C |
| CCOP(=O)(CC=CC(=O)O)OCC | 73 to 75 °C |
| O=C(O)c1ccc([C@H]2CC[C@H](C3CCC4(CC3)OCCO4)CC2)cc1F | 228 °C |
| CCOC(=O)C1=C(N)NC(N)=C(C(=O)OC(C)C)C1c1ccccc1 (stereo not given) | 170 °C |
| CNC(=O)C(=NOCF)c1ccccc1Oc1ncnc(Oc2ccccc2Cl)c1F | 128 to 129 °C |
| CCCCCCCN(CC1(c2ccccc2)CCCC1)C(=O)Nc1c(C(C)C)cccc1C(C)C | 95 to 97 °C |
| COCCCN1C[C@H](O)c2cc(S(N)(=O)=O)sc2S1(=O)=O | 109 to 111 °C |
| Nc1c(Cl)cc(C(O)CNCCCCCCOCCCCCCc2ccc3ccccc3n2)cc1Cl (stereo not given) | 62.3 to 64.7 °C |
| IC#CCSc1cccnc1 | 114 to 116 °C |
| C=CC(=O)OCCCCCCC(CCCCCCOC(=O)C=C)C(=O)OCCCCCCCCCCCCCCCCOc1ccc(-c2cccc(F)c2F)cc1 | 33.8 to 35.5 °C |
| COCCc1nc2c(N)nc3ccccc3c2n1CCOCCCc1ccccc1 | 104 °C |

| SMILES | melting point |
| --- | --- |
| COC(=O)C(=COCF)c1ccccc1CBr | 73 to 76 °C |
| CNC(=O)c1cc2c(Oc3ccc(C(F)(F)F)cc3)cnc(Cl)c2s1 | 178 to 179 °C |
| Cc1cc(C)c(NC(=O)Nc2c(-c3ccccc3Cl)c3ccncc3n(C)c2=O)c(C)c1 | 222 to 224 °C |
| Cn1c(=O)[nH]c(=O)c2c1ncn2CC#N | 285 to 287 °C |
| Brc1cc(Cc2ccc3ccccc3c2)cc(Br)c1OCc1nnn[nH]1 | 183 to 184 °C |
| COc1ccc(CCNC(=O)CNc2ccc(C)cc2)cc1OC | 87 to 88.5 °C |
| Cc1oc(-c2ccccc2)nc1CCOc1ccc(C=O)c2ccccc12 | 130 to 133 °C |
| O=C(O)c1ccc(OCCCCCCc2ccc3cc(O)c(O)cc3c2)cc1 | 160 to 162 °C |
| CC(=O)N[C@H]1CC[C@H](CCN2CCC(c3ccc(F)c4occc34)CC2)CC1 | 204 °C |
| Cc1cc(N2CCN(CC(=O)c3ccccc3)C2=O)sc1C(=O)NCc1cccnc1 | 174 to 176 °C |
| NC(=O)C(N)c1c(Cl)cccc1Cl (stereo not given) | 166 °C |
| CN1CC[C@@H](c2c(O)cc(O)c3c(=O)cc(-c4cc(F)ccc4Br)oc23)[C@@H]1CO | 145 to 147 °C |
| C/C(=C(\C#N)C(N)=S)N1CCCN(c2ccccc2)CC1 | 151 to 153 °C |
| CC(C)C(c1ccccc1O)N1CCOCC1 (stereo not given) | 73 to 77 °C |
| CCOc1cc(-c2cc(C(F)(F)F)n3ncc(-c4ccnc(C)c4)c3n2)ccc1C(F)(F)F | 226 °C |
| CN(CC(=O)C(CCCCN)NC(=O)c1ccccc1)C(=O)N1CCCC1C(=O)O (stereo not given) | 130 to 133 °C |
| CCOC(=O)c1cn(CC)c2nc(C=O)c(OCC)cc2c1=O | 169 to 170 °C |
| COc1c(C)c(C)c2c(c1C)C(c1ccc(CBr)cc1)C(C)(C)O2 (stereo not given) | 97 to 98 °C |
| CCOC(=O)[C@H](CCc1ccccc1)N[C@@H](C)C(=O)N1N=C(c2ccccc2)S[C@H]1C(=O)O | 180 to 182 °C |
| CCOC(=O)c1cn(N=C(C)C)c2c(F)c(F)c(F)cc2c1=O | 166 °C |
| CCOC(=O)COc1cc(OCc2ccccc2)ccc1C#N | 84 °C |
| CC(C)(C)OC(=O)N[C@H](Cc1ccc(Cl)c(Cl)c1)C(=O)N1CCC[C@H]1C(=O)NC1CCc2n[nH]cc2C1 (stereo not given in full) | 116 to 119 °C |
| CC1(C)Oc2ccc(C#N)cc2[C@@H](NC(=O)Nc2cccc(CC(=O)O)c2)[C@@H]1O | 135 to 138 °C |
| FC(F)(F)Oc1ccc(Nc2cc(-n3ccc(C(F)(F)F)n3)c3ccccc3n2)cc1 | 128 to 130 °C |
| COc1cc(Nc2c(C#N)cnc3cc(C#CCCN4CCOCC4)c(OC)cc23)c(Cl)cc1Cl | 140 to 142 °C |
